{"source": "patent US20060148683A1", "about": "“Detection and treatment of intravascular lesions” (priority 2001, published 2006)", "format_in_all_cases": "binding", "key": {"DD(E) fragment of fibrin": {"target": "T1, DD(E) fragment of fibrin (Homo sapiens, UniProt P02671+P02675+P02679, DEL433-453)", "T1 construct": "complex of the crosslinked D domains of adjacent fibrin monomers with the central E domain of fibrin", "assay": "Dissociation constant (Kd) of optical agent for DD(E) fragment of fibrin", "conditions": "24° C.; read-out: Kd (μM) vs. DD(E) @ 24° C.", "source_text": "Optical agents of the invention include an OD and a FBM covalently bound to each other, either directly or via a linker (OD-L-FBM). The FBM can be a small molecule or a peptide. As used herein, the term “peptide” refers to a chain of amino acids that is about 2 to about 75 amino acids in length (e.g., 3 to 50 amino acids). Affinity of a peptide for fibrin can be expressed in terms of its dissociation constant (Kd), which is the equilibrium constant for the dissociation reaction of the peptide from the DD(E) fragment of fibrin. The term “DD(E) fragment of fibrin” refers to a fibrin subcomponent generated by proteolytic degradation of fibrin with plasmin or trypsin. The DD(E) fragment is a complex of the crosslinked D domains of adjacent fibrin monomers with the central E domain of fibrin (See, for example, Spraggon et al., Nature 389:455462 (1997)). Since DD(E) is a product resulting from the proteolysis of fibrin, one of skill in the art will understand that there may be some slight heterogeneity in its composition. The DD(E) fragment can be biotinylated and immobilized via avidin to a solid substrate (e.g., a multi-well plate). Peptides can be incubated with the immobilized DD(E) fragment in a suitable buffer and binding detected using known methodology. Methods for determining the dissociation constant of the peptide for DD(E) are set forth in WO 01/09188.\nAs a result of the FBM having affinity for fibrin, the optical agent also has affinity for fibrin. The term “affinity” refers to the capacity of the optical agent to be taken up by, retained by, or bound to the fibrin in the lesion. The affinity of an optical agent can be expressed in terms of its Kd, which is the equilibrium constant for the dissociation reaction of the optical agent from fibrin, and determined as discussed above for the peptide. The dissociation constant of the optical agent for DD(E) can have a value less than about 10 μM (e.g., 0.1 μM to 10 μM). In one embodiment, the dissociation constant value is less than about 5 μM. In another embodiment, the dissociation constant value is less than about 1 μM. The dissociation constant also may have a value less than about 0.3 μM (e.g., 0.2 μM).\nIn the methods of the present invention, the optical agent forms a fibrin-optical agent complex at the site of the lesion. The ability of the optical agent to form a fibrin-optical agent complex may be measured by examining the optical agent's dissociation constant (Kd) for a DD(E) fragment of fibrin as discussed above."}, "fibrin": {"target": "T2, fibrin (Homo sapiens, UniProt P02671+P02675+P02679)", "T2 sequence (P02671 36-629 limits assumed)": "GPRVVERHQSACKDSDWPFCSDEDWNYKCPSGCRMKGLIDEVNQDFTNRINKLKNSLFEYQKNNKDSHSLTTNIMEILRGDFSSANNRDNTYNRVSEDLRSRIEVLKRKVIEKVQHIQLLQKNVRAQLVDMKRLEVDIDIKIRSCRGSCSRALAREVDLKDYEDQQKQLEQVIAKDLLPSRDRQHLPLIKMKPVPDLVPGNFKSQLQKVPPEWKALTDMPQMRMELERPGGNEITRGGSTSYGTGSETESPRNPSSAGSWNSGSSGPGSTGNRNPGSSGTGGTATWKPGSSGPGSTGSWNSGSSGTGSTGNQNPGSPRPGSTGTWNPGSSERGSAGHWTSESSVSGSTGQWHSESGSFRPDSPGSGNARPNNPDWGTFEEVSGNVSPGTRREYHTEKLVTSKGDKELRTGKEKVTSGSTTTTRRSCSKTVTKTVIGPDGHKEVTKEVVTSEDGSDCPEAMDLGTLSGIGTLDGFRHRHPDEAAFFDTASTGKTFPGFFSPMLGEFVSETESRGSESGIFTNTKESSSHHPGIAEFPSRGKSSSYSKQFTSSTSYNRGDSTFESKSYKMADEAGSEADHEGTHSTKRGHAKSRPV", "T2 sequence (P02675 45-491 limits assumed)": "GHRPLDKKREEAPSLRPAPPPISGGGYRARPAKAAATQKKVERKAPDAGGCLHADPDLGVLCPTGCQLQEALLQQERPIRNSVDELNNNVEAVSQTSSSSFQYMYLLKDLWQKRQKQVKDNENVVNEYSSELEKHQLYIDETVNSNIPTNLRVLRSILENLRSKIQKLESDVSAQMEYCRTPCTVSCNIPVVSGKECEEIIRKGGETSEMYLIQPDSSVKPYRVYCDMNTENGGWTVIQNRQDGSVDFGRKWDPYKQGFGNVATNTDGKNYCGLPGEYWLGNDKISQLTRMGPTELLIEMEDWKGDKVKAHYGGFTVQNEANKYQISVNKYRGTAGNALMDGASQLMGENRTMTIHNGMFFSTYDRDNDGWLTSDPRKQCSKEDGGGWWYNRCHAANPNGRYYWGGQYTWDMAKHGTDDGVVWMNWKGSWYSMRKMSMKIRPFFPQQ", "T2 sequence (P02679 27-437 isoform P02679-2 limits assumed)": "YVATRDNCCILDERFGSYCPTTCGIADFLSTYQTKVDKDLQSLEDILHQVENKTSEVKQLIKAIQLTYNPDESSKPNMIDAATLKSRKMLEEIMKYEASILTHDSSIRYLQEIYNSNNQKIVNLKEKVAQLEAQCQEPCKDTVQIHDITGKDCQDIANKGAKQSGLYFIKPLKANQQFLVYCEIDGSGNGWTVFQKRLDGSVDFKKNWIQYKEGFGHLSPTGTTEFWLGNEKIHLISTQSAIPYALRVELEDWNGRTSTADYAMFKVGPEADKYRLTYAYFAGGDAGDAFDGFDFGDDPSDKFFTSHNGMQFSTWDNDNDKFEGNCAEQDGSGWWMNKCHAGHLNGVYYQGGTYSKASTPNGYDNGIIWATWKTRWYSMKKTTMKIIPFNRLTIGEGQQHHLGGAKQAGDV", "assay": "Confocal fluorescence imaging of fibrin-optical agent complex on lesion formed by cross-linking fibrinogen with thrombin", "conditions": "0.6 μM optical agent, 0.1 mg/mL fibrinogen, confocal fluorescence imaging ex 555 nm, em 575 nm", "description": "(§1) Site 2/fibrin: 0.1 mg/mL of fibrinogen was mixed with 0.6 μM of an optical agent (Structure XI, see FIG. 3) comprising tetramethylrhodamine as the optical dye. The mixture was coated (approximately 4-20 μL) onto a glass slide and cross-linking of fibrinogen was initiated with 1.3 μg/L of thrombin. Clotting occurred in approximately 15 sec. The slide was imaged using confocal fluorescence imaging (ex 555 nm, em 575 nm).\nas §1, with “1/fibrin:” for “2/fibrin:”, “X)” for “XI, see FIG. 3)”, “about 15-20 seconds.” for “approximately 15 sec.”"}, "[1]": {"target": "T3, fibrin on a lesion (plasma clot) (Homo sapiens, UniProt P02671+P02675+P02679)", "T3 construct": "from tissue; host or cells: platelet rich human plasma", "T3 sequence (P02671 36-629 limits assumed)": "T2 sequence (P02671 36-629 limits assumed)", "T3 sequence (P02675 45-491 limits assumed)": "T2 sequence (P02675 45-491 limits assumed)", "T3 sequence (P02679 27-437 isoform P02679-2 limits assumed)": "T2 sequence (P02679 27-437 isoform P02679-2 limits assumed)", "assay": "Confocal fluorescence imaging of fibrin-optical agent complex on plasma clot formed by clotting human plasma with thrombin", "conditions": "0.6 μM optical agent, platelet rich human plasma, confocal fluorescence imaging ex 555 nm, em 575 nm", "description": "Site 2/plasma clot: human plasma (platelet rich human plasma) was mixed with 0.6 μM of an optical agent (Structure XI, see FIG. 3) comprising tetramethylrhodamine as the optical dye. The mixture was coated onto a glass slide (approximately 4-20 μL) and clotting of plasma was initiated with 1.3 μg/L of thrombin. Clotting occurred within 15 sec. The slide was imaged using confocal fluorescence imaging (ex 555 nm, em 575 nm)."}}, "note": "Positions of bridges follow the written chain, without caps; N, C: chain ends. Non-standard residues stand in square brackets, D forms with d. Residues, ends and D or L forms follow the SMILES beside them. ξ: configuration not given here. *: point of attachment. X1 = CN(C)c1ccc2c(-c3cc(C(=O)*)ccc3C(=O)[O-])c3ccc(=[N+](C)C)cc-3oc2c1; Ile(3ξ) = CCC(C)[C@H](N)C(=O)O; Ahx = NCCCCCC(=O)O", "data": [{"molecule": "CCC(C)[C@H](NC(=O)[C@H](Cc1c[nH]c2ccccc12)NC(=O)[C@@H]1CSSC[C@H](NC(=O)[C@H](CCC(=O)O)NC(=O)[C@H](Cc2c[nH]c3ccccc23)NC(=O)[C@H](CCC(N)=O)NC(=O)CCCCCNC(=O)c2ccc(C(=O)[O-])c(-c3c4ccc(=[N+](C)C)cc-4oc4cc(N(C)C)ccc34)c2)C(=O)N2CCC[C@H]2C(=O)N[C@@H](Cc2ccc(O)cc2)C(=O)NCC(=O)N[C@@H](CC(C)C)C(=O)N1)C(=O)N[C@@H](CCC(N)=O)C(N)=O", "note": "(stereo partly drawn) [Structure XI] ({X1-Ahx}-QWECPYGLCW[Ile(3ξ)]Q-NH2; disulfide 4-9)", "values": [{"measurement": "Kd", "setting": "DD(E) fragment of fibrin", "value": 0.09, "unit": "µM"}, {"measurement": "Detection of fibrin based on signal of fibrin-optical agent complexes", "setting": "fibrin", "value": "Fibrin was detected"}, {"measurement": "Detection of fibrin based on signal of fibrin-optical agent complexes", "setting": "[1]", "value": "Fibrin was detected"}]}]}
